Measured values taken from patent US20200085839A1, “COMBINATION OF IMMUNOTHERAPEUTICS AND BISFLUOROALKYL-1,4-BENZODIAZEPINONE COMPOUNDS FOR TREATING LYMPHOMAS” (Ayala Pharmaceuticals Inc., priority 2018, published 2020).

Tested on: U266 cells (MM cell line)
Assay: Cell-bound BCMA by flow cytometry
Type: cell-based, human
Settings: 24 h, FIG. 1
Protocol: FIG. 1. Levels of cell-bound BCMA en multiple myelma (MM) cells Incubated with γ-secretase inhibitors (GSIs). U266 cells (MM cell line) were incubated with 0.3 nM, 0.5 nM, 1 nM or 3 nM of GSI (Compound 1, Compound 22, LY3039478 or PF3084014) for 24 hours, and BCMA levels were measured by flow cytometry.
For detecting levels of soluble and cell-bound BCMA, U266 cells (MM cell line) were seeded at 1×10^5 cells/well in a total volume of 250 μl into a 96-well plate. The cells were cultured in RPMI medium supplemented with 10% FCS. GSIs (Compound 1, Compound 22, LY3039478 (Lilly), and PF3084014 (Pfizer)) were added to U266 cell cultures at a concentration of 0.3 nM, 0.5 nM, 1 nM and 3 nM for soluble BCMA and at a concentration of […]. Following 24 hours of incubation at 37° C., the cells were collected, and BCMA levels were evaluated in both the cells (cell-bound BCMA) and the cell media (soluble BCMA). Cells were stained with an anti-BCMA antibody (PE anti-human CD269 BCMA, Biolegend). Soluble BCMA levels were analyzed by ELISA (Human BCMA/TNFRSF17 DuoSet kit: R&D Systems).

In the case of `C[C@H](NC(=O)CCC(F)(F)F)C(=O)N[C@@H]1C(=O)N(CCO)c2ncccc2-c2ccccc21` [LY3039478, reference compound], the “cell-bound BCMA levels” value is reported as “increased cell-bound BCMA levels”.

For `CCC[C@H](N[C@H]1CCc2cc(F)cc(F)c2C1)C(=O)Nc1cn(C(C)(C)CNCC(C)(C)C)cn1` [PF3084014, reference compound], the “cell-bound BCMA levels” value was “increased cell-bound BCMA levels”.
